Reference: ChEMBL document CHEMBL1131412, “N-[2-[4-(4-Chlorophenyl)piperazin-1-yl]ethyl]-3-methoxybenzamide: a potent and selective dopamine D4 ligand” (J Med Chem, 1998)

What follows are molecules tested against T1, 5-hydroxytryptamine receptor 1A (Rattus norvegicus, UniProt P19327) (assay: Binding affinity was measured at the serotonin 5-hydroxytryptamine 1A receptor using [3H]8-OH-DPAT as radioligand in rat hippocampal membrane.).
T1 sequence (P19327 whole entry): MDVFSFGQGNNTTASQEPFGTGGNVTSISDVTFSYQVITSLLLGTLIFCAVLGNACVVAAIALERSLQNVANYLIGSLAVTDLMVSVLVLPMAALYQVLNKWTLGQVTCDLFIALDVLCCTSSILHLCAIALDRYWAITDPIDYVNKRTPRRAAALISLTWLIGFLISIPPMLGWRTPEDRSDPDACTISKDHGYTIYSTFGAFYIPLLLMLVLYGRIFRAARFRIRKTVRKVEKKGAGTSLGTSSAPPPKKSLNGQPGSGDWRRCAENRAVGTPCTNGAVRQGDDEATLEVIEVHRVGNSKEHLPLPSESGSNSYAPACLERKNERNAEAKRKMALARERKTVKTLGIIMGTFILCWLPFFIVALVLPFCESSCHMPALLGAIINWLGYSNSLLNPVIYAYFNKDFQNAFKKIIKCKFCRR
Assay type: cell membranes, Hippocampus

IC50 | Structure (SMILES)
220 nM | COc1cccc(C(=O)NCCN2CCN(c3ccc(Cl)cc3)CC2)c1

Each molecule was assayed against T2, Adrenergic receptor alpha-1 (Rattus norvegicus, UniProt P15823+P23944+P43140) (assay: Binding affinity was measured at the Alpha-1 adrenergic receptor using [3H]prazosin as radioligand in rat brain cortex membrane.).
T2 sequence (P15823 whole entry): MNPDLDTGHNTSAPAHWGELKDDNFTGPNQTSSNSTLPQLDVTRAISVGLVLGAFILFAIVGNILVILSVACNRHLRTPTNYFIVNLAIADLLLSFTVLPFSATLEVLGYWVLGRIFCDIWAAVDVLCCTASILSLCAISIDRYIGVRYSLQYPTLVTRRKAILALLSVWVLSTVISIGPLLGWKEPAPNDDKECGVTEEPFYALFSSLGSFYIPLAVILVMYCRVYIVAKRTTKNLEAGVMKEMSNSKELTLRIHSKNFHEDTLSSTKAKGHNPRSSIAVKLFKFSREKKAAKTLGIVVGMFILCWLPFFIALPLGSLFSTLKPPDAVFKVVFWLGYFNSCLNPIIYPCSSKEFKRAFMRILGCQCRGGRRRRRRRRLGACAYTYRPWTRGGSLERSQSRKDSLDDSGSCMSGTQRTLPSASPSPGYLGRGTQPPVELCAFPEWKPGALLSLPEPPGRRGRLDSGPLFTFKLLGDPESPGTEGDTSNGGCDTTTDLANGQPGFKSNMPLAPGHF
T2 sequence (P23944 whole entry): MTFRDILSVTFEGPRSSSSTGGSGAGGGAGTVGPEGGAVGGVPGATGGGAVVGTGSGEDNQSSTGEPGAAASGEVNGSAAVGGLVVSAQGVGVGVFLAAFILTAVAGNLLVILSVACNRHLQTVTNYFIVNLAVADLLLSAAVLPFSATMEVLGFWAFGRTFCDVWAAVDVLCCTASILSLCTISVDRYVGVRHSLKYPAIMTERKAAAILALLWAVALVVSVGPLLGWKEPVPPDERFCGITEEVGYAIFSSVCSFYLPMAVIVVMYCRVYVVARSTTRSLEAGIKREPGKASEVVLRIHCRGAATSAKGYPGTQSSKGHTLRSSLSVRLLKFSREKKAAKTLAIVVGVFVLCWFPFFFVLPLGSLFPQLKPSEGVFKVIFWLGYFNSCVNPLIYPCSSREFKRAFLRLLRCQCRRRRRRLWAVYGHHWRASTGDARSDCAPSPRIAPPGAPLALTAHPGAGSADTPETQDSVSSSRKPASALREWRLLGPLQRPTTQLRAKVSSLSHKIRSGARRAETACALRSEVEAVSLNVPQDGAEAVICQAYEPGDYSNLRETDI
T2 sequence (P43140 whole entry): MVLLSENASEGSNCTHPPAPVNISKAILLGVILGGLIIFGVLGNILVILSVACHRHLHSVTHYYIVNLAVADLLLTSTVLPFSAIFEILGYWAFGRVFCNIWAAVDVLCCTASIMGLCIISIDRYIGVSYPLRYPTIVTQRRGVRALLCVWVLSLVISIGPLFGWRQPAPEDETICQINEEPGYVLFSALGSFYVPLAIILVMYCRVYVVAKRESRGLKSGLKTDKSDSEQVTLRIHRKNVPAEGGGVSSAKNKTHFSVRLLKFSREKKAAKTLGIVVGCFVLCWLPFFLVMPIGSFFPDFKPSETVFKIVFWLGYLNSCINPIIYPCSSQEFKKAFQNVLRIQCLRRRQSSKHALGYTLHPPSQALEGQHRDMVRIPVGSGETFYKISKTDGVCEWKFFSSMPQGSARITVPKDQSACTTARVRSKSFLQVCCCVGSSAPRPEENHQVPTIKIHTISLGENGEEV
Assay type: cell membranes

IC50 | Structure (SMILES)
270 nM | COc1cccc(C(=O)NCCN2CCN(c3ccc(Cl)cc3)CC2)c1

What follows are molecules tested against T3, D(4) dopamine receptor (Homo sapiens, UniProt P21917) (assay: In vitro binding affinity was measured at the cloned human Dopamine receptor D4.2 using [3H]YM-09151-2 as radioligand.).
T3 sequence (P21917 whole entry): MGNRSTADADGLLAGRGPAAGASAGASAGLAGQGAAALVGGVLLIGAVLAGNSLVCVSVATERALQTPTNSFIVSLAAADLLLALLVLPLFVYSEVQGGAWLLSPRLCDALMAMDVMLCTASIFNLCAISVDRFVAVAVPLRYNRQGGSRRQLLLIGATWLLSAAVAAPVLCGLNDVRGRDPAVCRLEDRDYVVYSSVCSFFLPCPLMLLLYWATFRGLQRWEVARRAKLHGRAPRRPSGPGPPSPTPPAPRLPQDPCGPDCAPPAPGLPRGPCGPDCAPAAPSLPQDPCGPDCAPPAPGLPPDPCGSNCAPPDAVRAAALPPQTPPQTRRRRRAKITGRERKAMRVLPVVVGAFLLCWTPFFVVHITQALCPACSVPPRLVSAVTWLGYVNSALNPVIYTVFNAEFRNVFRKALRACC

Ki | Structure (SMILES)
3 nM | COc1ccccc1N1CCN(CCNC2=Nc3ccccc3OC2)CC1
0.7 nM | COc1ccccc1N1CCN(Cc2ccn(-c3ccccc3)c2)CC1

What follows are molecules tested against T3, D(4) dopamine receptor (assay: In vitro binding affinity at human cloned Dopamine receptor D4.2 by [3H]YM-09151-2 displacement.).

IC50 | Structure (SMILES)
120 nM | COc1ccccc1N1CCN(CCC(=O)NC2CCc3c(cccc3OC)C2)CC1 (stereo not given)
3.1 nM | COc1cccc(C(=O)CCCN2CCN(c3ccccc3OC)CC2)c1
7.8 nM | COc1ccc(OC)c(C(=O)NCCN2CCN(c3ccccc3OC)CC2)c1
4 nM | COc1ccccc1C(=O)NCCN1CCN(c2ccccc2OC)CC1

Continued, molecule first:

Structure (SMILES) | IC50
COc1ccc2c(c1)C(CCCN1CCN(c3ccccc3OC)CC1)CCC2 (stereo not given) | 280 nM
COc1ccccc1N1CCN(CC(=O)NC2CCc3c(cccc3OC)C2)CC1 (stereo not given) | 850 nM
COc1cccc(-c2csc(CN3CCN(c4ccccc4OC)CC3)n2)c1 | 740 nM
COc1cccc(C(=O)NCCN2CCN(Cc3ccccc3OC)CC2)c1 | 30 nM
COc1cccc(C(=O)NCCN2CCN(c3ccc(Cl)cc3)CC2)c1 | 0.057 nM
COc1cccc(C(=O)NCCN2CCN(Cc3ccc(Cl)cc3)CC2)c1 | 70 nM
COc1ccc2c(c1)CC(NC(=O)CN1CCN(c3ccccc3OC)CC1)CC2 (stereo not given) | 470 nM
